Assays:
[1] = system: H3K27me3 in Hela cells; assay: H3K27me3 Alpha Hela Assay (AlphaLISA); type: cell-based; conditions: Homo sapiens, HeLa, 72 h
Procedure: H3K27me3 Alpha Hela Assay (AlphaLISA). Ten different doses of each test compound (in a series of 3-fold dilutions) were plated in duplicate 384-well tissue culture treated plates (Catalog #6007680; Perkin Elmer, Waltham, Mass.). Hela cells grown in culture were trypsinized and counted using a Countess® cell counter (Catalog #C10281; Life Technologies, Grand Island, N.Y.). Cell were diluted to 67,000 cells per mL in10% DMEM (Catalog #10569-010 Life Technologies, Grand Island, N.Y.) and 15 μL (1,000 cells) were plated into each well using the Biotek MicroFlo™ Select Dispenser (BioTek Instruments, Inc. Vermont, USA),) of the 384-well plate. Plates were incubated at 37° C./5% CO2 for 72 hrs. One of the duplicate plates was processed for HeLa assay and the other for viability. 5 μL of Cell-Histone Lysis buffer (1×) (Catalog #AL009F1 Perkin Elmer; Waltham, Mass.) per well was added to the plate processed for AlphaLISA and the plate was incubated at RT for 30 minutes on a plate shaker with low speed (Model# 4625-Q Thermo Scientific; Waltham, Mass.). Then, 10 μL per well Histone Extraction buffer (catalog #AL009F2; Perkin Elmer; Waltham, Mass.) was added and the plate further incubated at RT for 20 min on plate shaker with low speed. Next, 10 μL of 5× mix of anti-K27me3 acceptor beads plus Biotinylated anti-Histone H3 (C-ter) Antibody (diluted to 3 nM final) (Catalog #AL118 Perkin Elmer; Waltham, Mass.) was added in each well. Dilution of the acceptor beads and anti-Histone H3 was done in 1× Histone Detection buffer (Catalog #AL009F3 Perkin Elmer; Waltham, Mass.) which was produced by diluting the 10× stock provided. The plate was sealed with an aluminum plate sealer and incubated at 23° C. for 60 min. Next, 10 μL 5× solution of Streptavidin Donor beads were added (Catalog #6760002 Perkin Elmer; Waltham, Mass.) (20 μg/mL final in 1× Histone Detection Buffer), =plate was sealed with Aluminum plate sealer and incubated at 23° C. for 30 min. The plates were then read using an EnVision-Alpha Reader (model #2104 Perkin Elmer; Waltham, Mass.). […]

[2] = Cellular permeability in MDCK assay; type: in vitro ADME; conditions: dog, pH 7.4, MDCK II, with P-gp inhibitor GF120918 10 μM; for efflux ratio at 2.5 h, 2 μM: Papp(BA)/Papp(AB)
Procedure: Cell culture: MDCK II cells (obtained from Piet Borst at the Netherlands Cancer Institute) were seeded onto […] (PET) in 96-well BD insert systems at 2.5×10^5 cells/mL until to 4-7 days for confluent cell monolayer formation.
Experimental procedure: Test and reference compounds (nadolol, metoprolol and digoxin) were diluted with transport buffer (HBSS with 10mM Hepes, pH7.4) from stock solution to a concentration of 2 μM (<1% DMSO) and applied to the apical (A) or basolateral (B) side of the cell monolayer. Permeation of the test compounds from A to B direction or B to A direction was determined in duplicate with P-gp inhibitor (GF120918, 10 μM). Digoxin was tested at 10 μM from A to B direction or B to A direction with/without P-gp inhibitor (GF120918, 10 μM) as well, while nadolol and metoprolol were tested at 2 μM in A to B direction without P-gp inhibitor (GF120918, 10 μM) in duplicate. The plate was incubated for 2.5 hours in CO2 incubator at 37±1° C., with 5% CO2 at saturated humidity without shaking. In addition, the efflux ratio of each compound was also determined. Test and reference compounds were quantified by LC/MS/MS analysis based on the peak area ratio of analyte/IS. After transport assay, Lucifer yellow rejection assay are applied to determine the cell monolayer integrity. Buffers are removed from both apical and basolateral chambers, followed by the addition of 75 μL of 100 μM lucifer yellow in transport buffer and 250 μL transport buffer in apical and basolateral chambers, respectively. The plate is incubated for 30 minutes at 37° C. with 5% CO2 and 95% relative humidity without shaking. After 30 minutes incubation, 20 μL of lucifer yellow samples are taken from the apical sides, followed by the addition of 60 μL of Transport Buffer. And then 80 μL of lucifer yellow samples are taken from the basolateral sides. The relative fluorescence unit (RFU) of lucifer yellow is measured at 425/528 nm (excitation/emission) with a Molecular Device M2e plate reader.
Data analysis: The apparent permeability coefficient Papp (cm/s) was calculated using the equation: Papp=(dCr/dt)×Vr/(A×C0) Where dCr/dt is the cumulative concentration of compound in the receiver chamber as a function of time (μM/s); Vr is the solution volume in the receiver chamber (0.075 mL on the apical side, 0.25 mL on the basolateral side); A is the surface area for the transport, i.e. 0.0804 cm2 for the area of the monolayer; C0 is the initial concentration in the donor chamber (μM).
The efflux ratio was calculated using the equation: Efflux Ratio=Papp(BA)/Papp(AB) Percent recovery was calculated using the equation: % Recovery=100×[(Vr×Cr)+(Vd×Cd)]/(Vd×C0) Where Vd is the volume in the donor chambers (0.075 mL on the apical side, 0.25 mL on the basolateral side); Cd and Cr are the final concentrations of transport compound in donor and receiver chambers, respectively.
Percent of lucifer yellow in basolateral well is calculated using the equation:
[formula] where RFUApical and RFUBasolateral are the relative fluorescence unit values of lucifer yellow in the apical and basolateral wells, respectively; VApical and VBasolateral are the volume of apical and basolateral wells (0.075 mL and 0.25 mL), respectively. Percent lucifer yellow should be less than 2.

`Cc1cc(Cl)c(CNC(=O)c2cc(Cl)c3c(c2C)OC(C)(C2CCC(N4CC(OC(F)F)C4)CC2)O3)c(=O)[nH]1` (single isomer, unassigned) [Example 13] gave an EC50 [1] of 0.81 nM, a Papp at 2.5 h, 2 μM [2] of 8.9 ×10⁻⁶ cm/s and an efflux ratio at 2.5 h, 2 μM [2] of 0.64.

`Cc1cc(Cl)c(CNC(=O)c2cc(Cl)c3c(c2C)OC(C)(C2CCC(N4CC(OC5CC5)C4)CC2)O3)c(=O)[nH]1` (single isomer, unassigned) [Example 8, 7-chloro-N-((4-chloro-6-methyl-2-oxo-1,2-dihydropyridin-3-yl)methyl)-2-(4-(3-cyclopropoxyazetidin-1-yl)cyclohexyl)-2,4-dimethylbenzo[d][1,3]dioxole-5-carboxamide] showed an EC50 [1] of 0.52 nM, a Papp at 2.5 h, 2 μM [2] of 6.1 ×10⁻⁶ cm/s and an efflux ratio at 2.5 h, 2 μM [2] of 0.9.

Molecule `CSc1cc(C)[nH]c(=O)c1CNC(=O)c1cc(Cl)c2c(c1C)OC(C)(C1CCC(N3CC(F)C3)CC1)O2` (single isomer, unassigned) [Example 12] has an EC50 [1] of 0.59 nM, a Papp at 2.5 h, 2 μM [2] of 6.3 ×10⁻⁶ cm/s and an efflux ratio at 2.5 h, 2 μM [2] of 1.2.

For `CSc1cc(C)[nH]c(=O)c1CNC(=O)c1cc(Cl)c2c(c1C)OC(C)(C1CCC(N3CC(OC(F)F)C3)CC1)O2` (single isomer, unassigned) [Example 1, 7-chloro-2-(4-(3-(difluoromethoxy)azetidin-1-yl)cyclohexyl)-2,4-dimethyl-N-((6-methyl-4-(methylthio)-2-oxo-1,2-dihydropyridin-3-yl)methyl)benzo[d][1,3]dioxole-5-carboxamide], the EC50 [1] was 0.52 nM, the Papp at 2.5 h, 2 μM [2] was 5.6 ×10⁻⁶ cm/s and the efflux ratio at 2.5 h, 2 μM [2] was 0.79.

Molecule `CSc1nc(C)[nH]c(=O)c1CNC(=O)c1cc(Cl)c2c(c1C)OC(C)(C1CCC(N3CC(OC(F)F)C3)CC1)O2` (single isomer, unassigned) [Example 10] has an EC50 [1] of 1.9 nM, a Papp at 2.5 h, 2 μM [2] of 6.5 ×10⁻⁶ cm/s and an efflux ratio at 2.5 h, 2 μM [2] of 0.69.

Work on `CSc1cc(C)[nH]c(=O)c1CNC(=O)c1cc(Cl)c2c(c1C)OC(C)(C1CCC(N3CC(OC4CC4)C3)CC1)O2` (single isomer, unassigned) [Example 9] yielded an EC50 [1] of 0.61 nM, a Papp at 2.5 h, 2 μM [2] of 3.8 ×10⁻⁶ cm/s and an efflux ratio at 2.5 h, 2 μM [2] of 1.4.

Work on `COC1CN(C2CCC(C3(C)Oc4c(Cl)cc(C(=O)NCc5c(SC)cc(C)[nH]c5=O)c(C)c4O3)CC2)C1` (single isomer, unassigned) [Example 17, 7-chloro-2-(4-(3-methoxyazetidin-1-yl)cyclohexyl)-2,4-dimethyl-N-((6-methyl-4-(methylthio)-2-oxo-1,2-dihydropyridin-3-yl)methyl)benzo[d][1,3]dioxole-5-carboxamide] yielded an EC50 [1] of 0.33 nM, a Papp at 2.5 h, 2 μM [2] of 2.5 ×10⁻⁶ cm/s and an efflux ratio at 2.5 h, 2 μM [2] of 1.8.

From US11274095B2, “Modulators of methyl modifying enzymes, compositions and uses thereof” (Constellation Pharmaceuticals, Inc., priority 2018, dated 2022)
